Drawing on patent US5610176A, “Tachykinin (NK1) receptor antagonists” (Warner-Lambert Company, priority 1995, dated 1997), this text covers Kb, IC50 and ED50 for nine molecules.

Test [1] concerns the target T1, NK1 receptor (Cavia porcellus, UniProt P30547).
T1 construct: Guinea Pig Ileum; from tissue; host or cells: guinea pig ileum
The test can be described thus: NK1 antagonist activity in an in vitro NK1 preparation (guinea pig ileum), antagonism of substance-P methylester. Format: cell-based. The settings on record: vs substance-P methylester. An excerpt:
Therefore, it is expected to be useful in the therapeutic disorders when the attenuation of the NK1 receptor response is the appropriate form of intervention.

Test [2] addresses T2, tachykinin NK1 receptor (Homo sapiens, UniProt P25103).
T2 construct: tachykinin NK1 receptor sites in human IM9 lymphoma cells; endogenous in cells; host or cells: human IM9 lymphoma cells
The test can be described thus: NK1 binding in human IM9 lymphoma cells, displacement of [125I]Bolton Hunter Substance-P.

In test [3] the target is T1, NK1 receptor. The test is described as follows: Inhibition of SPOMe-induced plasma protein extravasation in the guinea pig bladder. Format: in vivo. An excerpt:
They antagonize the ability of a NK1 receptor selective agonist (SPOMe) to induce plasma protein extravasation in the guinea pig bladder. The protocol is similar to that described by Eglezos, et al., Eur. J. Pharmacol., 209: 277-279 (1991).

As usually defined, the Kb is the equilibrium dissociation constant of an antagonist, usually derived from a functional assay. A lower Kb goes with a more potent antagonist. The term IC50 denotes the concentration at which inhibition is half-maximal. Low readings indicate greater potency in that assay, high ones weaker potency in that assay.

Where a name gives a salt, the structure may show the parent alone. Read-outs that look alike come from different tables or passages of the source.

T2 sequence (P25103 whole entry): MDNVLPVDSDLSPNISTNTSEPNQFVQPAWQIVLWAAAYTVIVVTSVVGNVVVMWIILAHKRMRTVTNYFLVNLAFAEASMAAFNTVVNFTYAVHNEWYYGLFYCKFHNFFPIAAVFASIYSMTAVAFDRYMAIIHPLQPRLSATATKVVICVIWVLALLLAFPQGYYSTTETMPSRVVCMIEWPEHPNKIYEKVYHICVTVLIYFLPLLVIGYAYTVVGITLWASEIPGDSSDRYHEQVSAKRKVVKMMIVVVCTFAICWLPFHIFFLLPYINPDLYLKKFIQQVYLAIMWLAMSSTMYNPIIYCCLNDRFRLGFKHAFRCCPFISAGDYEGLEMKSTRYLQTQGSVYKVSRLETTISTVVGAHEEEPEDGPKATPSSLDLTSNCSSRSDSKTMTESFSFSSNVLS
T1 sequence (P30547 whole entry): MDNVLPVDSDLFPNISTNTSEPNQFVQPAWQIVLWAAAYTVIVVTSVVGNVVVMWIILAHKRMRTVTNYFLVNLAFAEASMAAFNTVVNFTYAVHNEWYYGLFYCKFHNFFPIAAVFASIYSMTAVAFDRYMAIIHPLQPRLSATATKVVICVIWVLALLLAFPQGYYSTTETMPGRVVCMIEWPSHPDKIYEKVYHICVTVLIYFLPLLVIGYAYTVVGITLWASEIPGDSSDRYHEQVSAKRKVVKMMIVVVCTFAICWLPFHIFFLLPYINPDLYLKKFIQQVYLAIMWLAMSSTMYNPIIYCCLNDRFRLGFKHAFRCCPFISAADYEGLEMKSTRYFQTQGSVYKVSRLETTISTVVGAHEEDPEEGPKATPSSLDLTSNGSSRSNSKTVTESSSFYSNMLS

As for `C[C@](Cc1c[nH]c2ccccc12)(NC(=O)OCc1cc(F)ccc1F)C(=O)N[C@@H](CO)c1ccccc1` [Example 17, Carbamic acid, [2-[(2-hydroxy-1-phenylethyl)amino]-1-(1H-indol-3-ylmethyl)-1-methyl-2-oxoethyl]-, (2,5-difluorophenyl)methyl ester, [R-(R*,R*)]], in test [1], the antagonist equilibrium constant (Kb) was found to be 9.3 nM. In test [2], this molecule displayed an IC50 of 3.9 nM.
For `C[C@](Cc1c[nH]c2ccccc12)(NC(=O)OCc1cc2ccccc2s1)C(=O)N[C@@H](CO)c1ccccc1` [Example 18, Carbamic acid, [2-[(2-hydroxy-1-phenylethyl)amino]-1-(1H-indol-3-ylmethyl)-1-methyl-2-oxoethyl]-, benzo[b]thien-2-ylmethyl ester, [R-(R*,R*)]-] the same measures were 6.3 nM and 9 nM.
On to `CN(C)CC(=O)NC[C@H](NC(=O)[C@@](C)(Cc1c[nH]c2ccccc12)NC(=O)OCc1cc2ccccc2o1)c1ccccc1` [Example 10, Carbamic acid, [2-[[(2-[[(dimethylamino)acetyl]amino]-1-phenylethyl]amino]-1-(1H-indol-3-ylmethyl)-1-methyl-2-oxoethyl]-, 2-benzofuranylmethyl ester, monohydrochloride, [R-(R*,R*)]-], for which, in test [2], the IC50 worked out at 84 nM.
In test [1], `C[C@](Cc1c[nH]c2ccccc12)(NC(=O)OCc1cc2ccccc2o1)C(=O)N[C@@H](CO)c1ccccc1` [Example 6, Carbamic acid, [2-[(2-hydroxy-1-phenylethyl)amino]-1-(1H-indol-3-ylmethyl)-1-methyl-2-oxoethyl]-, 2-benzofuranylmethyl ester, [R-(R*,R*)]-] yielded a Kb of 1.3 nM. Also, the ED50 amounted to 0.16 mg/kg in test [3] (IV, read-out: ID50 (IV)) and 30 mg/kg in test [3] (PO, read-out: ID50 (PO)). This molecule displayed an IC50 in test [2] of 1.2 nM.
In test [2], `C[C@](Cc1c[nH]c2ccccc12)(NC(=O)OCc1ccccc1)C(=O)N[C@@H](CO)c1ccccc1` [Example 15, Carbamic acid, [2-[(2-hydroxy-1-phenylethyl)amino]-1-(1H-indol-3-ylmethyl)-1-methyl-2-oxoethyl]-, phenylmethyl ester, [R-(R* R*)]-] gave an IC50 of 58 nM.
In turn, `C[C@](Cc1c[nH]c2ccccc12)(NC(=O)OCc1cc2ccccc2o1)C(=O)N[C@@H](CN)c1ccccc1` [Example 8, Carbamic acid, [2-[(2-amino-1-phenylethyl)amino]-1-(1H-indol-3-ylmethyl)-1-methyl-2-oxoethyl]-, 2-benzofuranylmethyl ester [R-(R*,R*)]-] displayed a Kb in test [1] of 16 nM. Besides, the IC50 in test [2] worked out at 13 nM.
As for `CC(C)C[C@H](N)C(=O)OC[C@H](NC(=O)[C@@](C)(Cc1c[nH]c2ccccc12)NC(=O)OCc1cc2ccccc2o1)c1ccccc1` [Example 12, L-Leucine, 2-[[2-[[(2-benzofuranylmethoxy)carbonyl]amino]-3-(1H-indol-3-yl)-2-methyl-1-oxopropyl]amino]-2-phenylethyl ester, [R-(R*,R*)]-], the antagonist dissociation constant (Kb) in test [1] came to 22 nM. Further, the IC50 in test [2] was 16 nM.
`C[C@](Cc1c[nH]c2ccccc12)(NC(=O)OCc1ccccc1F)C(=O)N[C@@H](CO)c1ccccc1` [Example 16, Carbamic acid, [2-[(2-hydroxy-1-phenylethyl)amino]-1-(1H-indol-3-ylmethyl)-1-methyl-2-oxoethyl]-, (2-fluorophenyl)methyl ester, [R-(R*,R*)]-] came in with a Kb in test [1] of 10.6 nM. For the same molecule, the IC50 in test [2] came to 3.3 nM.
With `CN(C)CC(=O)OC[C@H](NC(=O)[C@@](C)(Cc1c[nH]c2ccccc12)NC(=O)OCc1cc2ccccc2o1)c1ccccc1` [Example 9, Glycine, N,N-dimethyl-, 2-[[2-[[(2-benzofuranylmethoxy)carbonyl]amino]-3-(1H-indol-3-yl)-2-methyl-1-oxopropyl]amino]-2-phenylethyl ester, monohydrochloride, [R-(R*,R*)]-], in test [1], the Kb was determined as 6.2 nM. Also, the ED50 was 0.16 mg/kg in test [3] (IV, read-out: ID50 (IV)) and 4.4 mg/kg in test [3] (PO, read-out: ID50 (PO)). The concentration for half-maximal inhibition (IC50) in test [2] was 12 nM.
